In patent publication US7276501B2, “6-(4-substituted-anilino)pyrimidine derivatives, method for preparation thereof and antiviral pharmaceutical composition comprising the same” (B & C Biopharm, priority 2002, dated 2007):

Molecular target: T1, HCV RNA polymerase (RNA dependent RNA polymerase, NS5B) (Hepatitis C virus genotype 1b, UniProt P26663)
T1 construct: the NS5B region (1773 bps) was amplified by PCR and cloned into pVLHIS, a baculovirus transfer vector; (His)6; made in house; host or cells: Sf9 insect cells (recombinant baculovirus, pVLHIS-NS5B)
Assay: Inhibitory effect on activity of recombinant HCV RNA polymerase (NS5B) in vitro
Assay type: biochemical, HCV-1b type HCV
Description: Test of Inhibitory Effect on Activity of HCV RNA Polymerase (RNA Dependent RNA Polymerase, NS5B) in vitro
The following in vitro experiments were conducted to examine the inhibitory effect of the compounds according to the present invention on the activity of HCV RNA dependent RNA Polymerase.
HCV cDNA was obtained from the blood of HCV-1b type HCV patient and the NS5B region (1773 bps) was amplified by PCR and cloned into pVLHIS, a baculovirus transfer vector, to prepare a recombinant transfer vector. The prepared transfer vector and the wild-type AcNPV vector were cotransfected into Sf9 insect cell line to yield a recombinant baculovirus containing the histidine-tagged recombinant vector pVLHIS-NS5B. Sufficiently cultured insect cells were infected with the resulting recombinant baculovirus and cultured in Grace's medium containing 10% FBS for 3 to 4 days. The culture broth was centriftiged to obtain only the infected cells. The cells were washed three times with PBS and resuspended in binding buffer [50 mM Na-phosphate (pH 8.0), 30 mM NaCl, 10 mM imidazole, 1 mM DTT, 10% glycerol, 1% NP40], sonicated and the clearized lysate was obtained. Recombinant NS5B was purified by affinity column chromatography using a Ni-NTA His bind resin (Novagen) to produce pure NS5B protein. The (His)6-tagged NS5B was bound to Ni-NTA resin and washed the binding buffer containing 50 mM imidazole. The bound NS5B was eluted with the binding buffer containing imidazole in a step-gradient manner (100-300 mM). The NS5B protein fractions were dialyzed against buffer [50 mM Tris-HCl, 50 mM NaCl, 1 mM DTT, […], 10% glycerol], followed by at −70° C. in a small aliquot.
The 3′UTR cDNA (220 bp) of HCV was obtained from 1b HCV RNA of the blood of a hepatitis C patient by PCR and cloned into pcDNA3 vector. Linearized DNA fragment containing the 3′-UTR was prepared using the restriction enzyme Eco RI and used as a template for in vitro transcription using T7 RNA ploymerase to prepare RNA fragment containing 3′-UTR.
In vitro inhibitory activity of the compounds of the present invention on recombinant HCV RNA polymerase was measured as follows.
A streptavidin-coated well plate was prepared suitable for the sample to be examined. 25 μl of 2× assay buffer [50 mM Tris-Cl (pH 7.5), 100 mM NaCl, 10 mM MgCl2, 20 mM KCl, 1 mM EDTA, 1 mM DTT] and 10 μl of purified HCV RNA polymerase 200 ng and 3′-UTR template RNA were added to each well. Then, 5 μl of the sample to be examined was added to have final concentrations of 10, 1, 0.1 and 0.01 μg/mL. Finally, 10 μl of a reactant solution containing DIG-(digoxigenin)-UTP, biotin-UTP, ATP, CTP, GTP, and UTP as a nucleotide for the ploymerase reaction with the RNA template of HCV 3′-UTR RNA was added to each well. The reaction mixture was incubated at 22° C. for 60 minutes. By the action of HCV polymerase, newly generated RNAs including UTP conjugated with biotin and DIG were copied and these new RNAs could bind to streptavidin coated on the well by biotin-conjugated UTP. After completion of the reaction, the plate was washed three times with 200 μl of a washing buffer (pH 7.0, Roche Co.) to remove unreacted substances and impurities. Then, 100 μl of the secondary antibody anti-DIG-POD (peroxidase, Roche Co.) was added to each well and incubated at 37° C. for 1 hour. Again, the well plate was washed with the washing buffer. Finally, 100 μl of ABTS^R (Roche Co.) as a POD substrate was added to each well and reacted for 15 to 30 minutes. The optical density (OD) was measured using an ELISA reader (Bio-Tek instrument Co.) at 405 nm. The inhibitory effect on the activity of HCV polymerase was calculated by subtracting the OD of the positive control without the sample.

T1 sequence (P26663 2420-3010): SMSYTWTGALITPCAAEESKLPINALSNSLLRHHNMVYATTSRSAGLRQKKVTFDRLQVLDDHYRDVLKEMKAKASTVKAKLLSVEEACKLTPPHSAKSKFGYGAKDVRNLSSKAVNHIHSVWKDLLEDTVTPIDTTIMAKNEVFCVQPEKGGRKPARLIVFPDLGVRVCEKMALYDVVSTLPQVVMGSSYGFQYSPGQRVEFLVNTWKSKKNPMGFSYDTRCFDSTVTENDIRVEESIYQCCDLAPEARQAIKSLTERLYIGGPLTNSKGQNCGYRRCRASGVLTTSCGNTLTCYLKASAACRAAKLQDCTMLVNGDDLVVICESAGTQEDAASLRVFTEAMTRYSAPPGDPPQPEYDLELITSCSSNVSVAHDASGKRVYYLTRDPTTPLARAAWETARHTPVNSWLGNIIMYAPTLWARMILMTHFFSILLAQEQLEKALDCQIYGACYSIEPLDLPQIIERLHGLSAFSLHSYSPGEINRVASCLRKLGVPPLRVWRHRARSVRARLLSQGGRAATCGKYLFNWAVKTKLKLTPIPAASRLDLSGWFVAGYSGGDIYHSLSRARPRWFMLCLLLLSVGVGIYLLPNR

Row | SMILES | Inhibition of activity of HCV RNA polymerase (%) (0.01 μg/mL) | Inhibition of activity of HCV RNA polymerase (%) (0.1 μg/mL) | Inhibition of activity of HCV RNA polymerase (%) (1 μg/mL) | Inhibition of activity of HCV RNA polymerase (%) (10 μg/mL)
1 | CSc1nc(Nc2ccc(N3CCOCC3)cc2)cc(N2CCN(C(=O)c3ccncc3)CC2)n1 [Example 3, 2-methylthio-6-[4-(4-morpholino)anilino]-4-[4-[(4-pyridyl)carbonyl]piperazin-1-yl]pyrimidine] | 23 | 53 | 73 | 93
2 | CSc1nc(Nc2ccc(N3CCOCC3)cc2)cc(N2CCN(C(=O)OC(C)C)CC2)n1 [Example 1, 2-methylthio-6-[4-(4-morpholino)anilino]-4-[4-(isopropoxycarbonyl)piperazin-1-yl]pyrimidine] | 29 | 55 | 81 | 99
3 | CSc1nc(Nc2ccc(N3CCOCC3)cc2)cc(N2CCN(CC(=O)O)CC2)n1 [Example 4, 2-methylthio-6-[4-(4-morpholino)anilino]-4-[4-(carboxymethyl)piperazin-1-yl]pyrimidine] | 27 | 52 | 65 | 94
4 | CSc1nc(Nc2ccc(N3CCOCC3)cc2)cc(N2CCN(C(=O)c3cccnc3)CC2)n1 [Example 2, 2-methylthio-6-[4-(4-morpholino)anilino]-4-[4-[(3-pyridyl)carbonyl]piperazin-1-yl]pyrimidine] | 15 | 30 | 62 | 98
